Results reported in ChEMBL document CHEMBL6182913, “Design of Potent Small-Molecule Stimulator of Interferon Gene Inhibitor and Stimulator of Interferon Gene Mutant-Specific Degrader” (J Med Chem, 2025).
Active and inactive are the calls of the source. The calls are words filed in the database; no cut-off is given here.

Legend:
[1] = Cmax in mouse at 20 mg/kg, po by LC-MS/MS analysis; assay type: ADME, organism-based; settings: in vivo, po, 20 mg/kg
[2] = system: Stimulator of interferon genes protein (Homo sapiens), Q86WV6 [UNDEFINED MUTATION]; test: Induction of STING S154 mutant degradation in human THP-1 cells at 1 uM incubated for 48 hrs by Western blotting analysis; assay type: cell-based
[3] = Cytotoxicity against human THP1-Blue ISG cells assessed as inhibition of cell growth at 10 uM incubated for 24 hrs by MTS assay relative to control; assay type: toxicity, cell-based
[4] = biological target: T1, Stimulator of interferon genes protein (Homo sapiens, UniProt Q86WV6); test: Inhibition of STING activation in human THP1-Blue ISG cells assessed as inhibition of c-GAMP-induced STING oligomerization at 0.1 to 1 uM preincubated with compound for 6 hrs followed by cGAMP addition and measured after 3 hrs by Western blotting analysis; assay type: cell-based; settings: dose 0.1-1 µM, time 9.0 hrs
Target sequence in this assay (Q86WV6 whole entry): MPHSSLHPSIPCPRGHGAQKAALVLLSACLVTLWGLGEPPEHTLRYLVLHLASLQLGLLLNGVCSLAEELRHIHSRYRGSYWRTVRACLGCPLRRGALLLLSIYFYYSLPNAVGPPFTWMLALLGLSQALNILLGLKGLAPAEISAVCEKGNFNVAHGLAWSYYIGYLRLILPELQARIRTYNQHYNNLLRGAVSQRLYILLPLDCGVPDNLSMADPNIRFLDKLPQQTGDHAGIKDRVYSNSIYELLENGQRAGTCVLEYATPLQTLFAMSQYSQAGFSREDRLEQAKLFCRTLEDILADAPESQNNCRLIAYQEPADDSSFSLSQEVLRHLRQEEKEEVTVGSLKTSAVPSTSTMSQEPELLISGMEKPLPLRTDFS

[5] = biological target: T2, Stimulator of interferon genes protein (Mus musculus, UniProt Q3TBT3); test: Inhibition of cGAMP-induced mouse STING transfected in human THP-1 cells preincubated with compound for 6 hrs followed by cGAMP addition and measured after 18 hrs by QUANTI-Luc based microplate reader analysis; assay type: cell-based
T2 sequence (Q3TBT3 whole entry): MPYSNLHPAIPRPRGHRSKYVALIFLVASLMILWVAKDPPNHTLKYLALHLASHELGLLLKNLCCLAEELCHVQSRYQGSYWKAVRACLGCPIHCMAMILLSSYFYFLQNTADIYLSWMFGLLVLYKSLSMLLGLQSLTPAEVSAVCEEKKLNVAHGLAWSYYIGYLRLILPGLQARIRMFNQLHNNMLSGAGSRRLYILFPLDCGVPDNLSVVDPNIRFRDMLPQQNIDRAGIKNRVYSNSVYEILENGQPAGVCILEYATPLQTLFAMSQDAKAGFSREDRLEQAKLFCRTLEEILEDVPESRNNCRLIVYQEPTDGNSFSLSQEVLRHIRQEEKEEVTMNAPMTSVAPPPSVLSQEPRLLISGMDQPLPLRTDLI

[6] = biological target: T1, Stimulator of interferon genes protein; test: Inhibition of STING activation in human THP1-Blue ISG cells assessed as reduction in STING dimer level at 0.1 to 1 uM incubated for 9 hrs by Western blotting analysis; assay type: cell-based; settings: dose 0.1-1 µM
Target sequence in this assay (Q86WV6 whole entry): as the sequence (Q86WV6 whole entry) above

[7] = biological target: T3, Stimulator of interferon genes protein (Mus musculus) (UniProt Q3TBT3); test: Inhibition of STING in mouse BMDM cells assessed as inhibition of cGAMP-induced IFN-beta release at 0.05 to 0.5 uM pretreated with compound for 6 hrs followed by cGAMP addition and measured after 18 hrs by ELISA; assay type: cell-based; settings: dose 0.05-0.5 µM, time 24.0 hrs
T3 sequence (whole entry): T2 sequence (Q3TBT3 whole entry)

[8] = biological target: T3, Stimulator of interferon genes protein (Mus musculus); test: In vivo inhibition of cGAMP-induced STING activation in autoimmune disease female C57BL/6 mouse model assessed as decrease in cGAMP-induced serum INF-beta level at 10 mg/kg, sc pretreated with compound for 2 hrs followed by cGAMP addition and measured after 3 hrs by ELISA; assay type: functional, organism-based
[9] = system: Stimulator of interferon genes protein (Homo sapiens), Q86WV6 [UNDEFINED MUTATION]; test: Induction of STING M155 mutant degradation in human THP-1 cells at 1 uM incubated for 12 hrs by Western blotting analysis; assay type: cell-based
[10] = system: Stimulator of interferon genes protein (Homo sapiens), Q86WV6 [UNDEFINED MUTATION]; test: Induction of STING M155 mutant degradation in human THP-1 cells at 1 uM preincubated with MLN4924 for 2 hrs followed by compound addition and measured after 22 hrs by Western blotting analysis; assay type: cell-based
[11] = system: Stimulator of interferon genes protein (Homo sapiens), Q86WV6 [UNDEFINED MUTATION]; test: Induction of STING M155 mutant degradation in human THP-1 cells by measuring maximum efficacy at 0.01 to 10 uM incubated for 24 hrs by Western blotting analysis relative to control; assay type: cell-based; settings: dose 0.01-10 µM
[12] = biological target: T3, Stimulator of interferon genes protein (Mus musculus); test: Inhibition of STING in mouse BMDM cells assessed as inhibition of poly(I:C) -induced IFN-beta release at 0.05 to 0.5 uM pretreated with compound for 6 hrs followed by poly(I:C) addition and measured after 18 hrs by ELISA; assay type: cell-based; settings: dose 0.05-0.5 µM, time 24.0 hrs
[13] = biological target: T3, Stimulator of interferon genes protein (Mus musculus); test: Inhibition of STING in mouse BMDM cells assessed as inhibition of LPS-induced IFN-beta release at 0.05 to 0.5 uM pretreated with compound for 6 hrs followed by LPS addition and measured after 18 hrs by ELISA; assay type: cell-based; settings: dose 0.05-0.5 µM, time 24.0 hrs
[14] = biological target: T1, Stimulator of interferon genes protein; test: Inhibition of STING activation in human THP1-Blue ISG cells assessed as decrease in cGAMP-induced STING phosphorylation at 0.1 to 1 uM preincubated with compound for 6 hrs followed by cGAMP addition and measured after 3 hrs by Western blotting analysis; assay type: cell-based; settings: dose 0.1-1 µM, time 9.0 hrs
Target sequence in this assay (Q86WV6 whole entry): as the sequence (Q86WV6 whole entry) above

[15] = system: Stimulator of interferon genes protein (Homo sapiens), Q86WV6 [UNDEFINED MUTATION]; test: Induction of STING M155 mutant degradation in human THP-1 cells at 5 uM incubated for 24 hrs by global proteomics analysis; assay type: cell-based
[16] = Metabolic stability in human liver microsomes assessed as half life at 10 uM in presence of NADPH by LC-MS/MS analysis; assay type: ADME, Microsome
[17] = biological target: T1, Stimulator of interferon genes protein; test: Inhibition of cGAMP-induced STING S154 mutant transfected in human THP-1 cells preincubated with compound for 6 hrs followed by cGAMP addition and measured after 18 hrs by QUANTI-Luc based microplate reader analysis; assay type: cell-based
Target sequence in this assay (Q86WV6 whole entry, looked up, change not shown): as the sequence (Q86WV6 whole entry) above

[18] = Metabolic stability in mouse plasma assessed as half life in presence of NADPH by LC-MS/MS analysis; assay type: ADME, cell-free
[19] = biological target: T1, Stimulator of interferon genes protein; test: Inhibition of STING activation in human THP1-Blue ISG cells assessed as inhibition of c-GAMP-induced STING dimerization at 0.1 to 1 uM preincubated with compound for 6 hrs followed by cGAMP addition and measured after 3 hrs by Western blotting analysis; assay type: cell-based; settings: dose 0.1-1 µM, time 9.0 hrs
Target sequence in this assay (Q86WV6 whole entry): as the sequence (Q86WV6 whole entry) above

[20] = Half life in mouse at 20 mg/kg, po by LC-MS/MS analysis; assay type: ADME, organism-based; settings: in vivo
[21] = biological target: T3, Stimulator of interferon genes protein (Mus musculus); test: Inhibition of STING in mouse BMDM cells assessed as inhibition of cGAMP-induced CXCL-10 release at 0.05 to 0.5 uM pretreated with compound for 6 hrs followed by cGAMP addition and measured after 18 hrs by ELISA; assay type: cell-based; settings: dose 0.05-0.5 µM, time 24.0 hrs
[22] = system: Stimulator of interferon genes protein (Homo sapiens), Q86WV6 [UNDEFINED MUTATION]; test: Induction of STING M155 mutant degradation in human THP-1 cells at 0.5 uM preincubated with rapamycin for 2 hrs followed by compound addition and measured after 14 hrs by Western blotting analysis; assay type: cell-based
[23] = system: Stimulator of interferon genes protein (Homo sapiens), Q86WV6 [UNDEFINED MUTATION]; test: Induction of STING M155 mutant degradation in human THP-1 cells at 1 uM preincubated with Baf A1 for 2 hrs followed by compound addition and measured after 22 hrs by Western blotting analysis; assay type: cell-based
[24] = system: Stimulator of interferon genes protein (Homo sapiens), Q86WV6 [UNDEFINED MUTATION]; test: Induction of STING M155 mutant degradation in human THP-1 cells at 1 uM incubated for 48 hrs by Western blotting analysis; assay type: cell-based
[25] = biological target: T3, Stimulator of interferon genes protein (Mus musculus); test: In vivo inhibition of cGAMP-induced STING activation in autoimmune disease female C57BL/6 mouse model assessed as decrease in cGAMP-induced serum INF-beta level at 20 mg/kg, po pretreated with compound for 2 hrs followed by cGAMP addition and measured after 3 hrs by ELISA; assay type: functional, organism-based
[26] = biological target: T1, Stimulator of interferon genes protein; test: Induction of STING S154 mutant degradation in human THP-1 cells incubated for 24 hrs by Western blotting analysis; assay type: cell-based
Target sequence in this assay (Q86WV6 whole entry, looked up, change not shown): as the sequence (Q86WV6 whole entry) above

Stimulator of interferon genes protein (Homo sapiens), Q86WV6 [UNDEFINED MUTATION], sequence (Q86WV6 whole entry, looked up, stated change not applied): as the sequence (Q86WV6 whole entry) above

COc1ccc2c(c1)C(=O)N(c1ccc(C(C)(C)C)c(F)c1)C(c1cc3cc(-c4ccc(C(=O)Nc5ccc(O)c(NS(C)(=O)=O)c5)cc4)ccc3o1)C2C(N)=O (configuration not stated)
Cmax [1]: 293 ng/mL | Cmax ([1]; read-out: Cmax): 200 nM | Activity [2]: Active; Compound Showed Maximum Degradation | inhibition at 24 h, 10 µM [3]: 34.4% | inhibition [4]: Active | IC50 [5]: 30 nM | inhibition [6]: Active | inhibition [7]: Active | inhibition [8]: Active | Activity [9]: Active | Activity [10]: Active | Emax [11]: 92% | inhibition [12]: inactive | inhibition [13]: inactive | inhibition [14]: Active | Activity [15]: Active | half-life at 10 µM [16]: > 60 min | IC50 [17]: 280 nM | half-life [18]: > 240 min | inhibition [19]: Active | half-life [20]: 198 min | inhibition [21]: Active | Activity [22]: Active | Activity [23]: inactive | Activity [24]: Active; Compound Showed Maximum Degradation | inhibition [25]: Active | DC50 [26]: 310 nM
